From patent US6928770B2, “Alternating layer non-edible foraging matrix configurations for crawling arthropods” (priority 1999, dated 2005)
Values joined by “and” are separate entries in the source; they are usually repeats but may differ in a detail not shown here. Identical values can stand only once. Like-named read-outs stand apart in the source and are kept apart here.

Columns and labels:
Format in all cases: in vivo
[1] = system: termites (Reticulitermes flavipes (Kollar)); assay: First experiment: test arena with three monitors, treated non-edible foraging matrix disc in one monitor
Source text: (§1) Data from two sets of experiments are included. In the first set of experiments, a total of 3,000 termites were used (2,970 workers and 30 soldiers) in all three replicates. In the second set of experiments, 3,000 termites were used in 4 replicates and 1,400 termites (1,386 workers and 14 soldiers) were used in two replicates for a total of six replicates. Fewer termites from 2 colonies were used because we could not collect enough to complete the replicates if a total of 3000 termites were used. The termites (Reticulitermes flavipes (Kollar)) were field collected from field colonies, separated from debris, and held in the laboratory at the USDA (United States Department of Agriculture) for no more than 14 days before introduction into a test arena for each experimental block. Termites from a different colony were used for each replicate.
(§2) The test arena consisted of Plexiglas sides (45 cm long, by 30 cm wide by 5.5 cm high) taped to a glass bottom (45 cm long, by 30 cm wide, by 0.6 cm high) with clear packing tape, manufactured by Crystal Clear, Manco Inc., Avon, Ohio. The Plexiglas sides were assembled by joining pieces with methylene chloride. Before the Plexiglas sides were taped to the glass bottom, the sides were baked in an oven at 40+/−2° C. for 24 hours to ensure that any volatiles caused by the methylene chloride were removed.
(§3) Builders sand from Unified Classification SP, O'Steen Bros., Inc., of Gainesville, Fla., was oven dried at 60+/−2° C. for at least 24 hours in metal pans. The sand was cooled and sieved using a sieve manufactured from Fisher Scientific Co., USA sieve no. 25, having openings of approximately 0.0278 inches each. The sieve was used to remove large pieces of debris. Two thousand five hundred grams (+/−1 g) of sand were poured into the arena and mixed thoroughly with 250 ml of double filtered, de-ionized water, which brought the moisture content of the sand to 10%. The sand was tamped and leveled.
(§4) Three monitoring stations were placed on top of the moistened builder's sand. The monitors were made of one roll of corrugated cardboard (100 cm by 6.5 cm) that was moistened and stacked into a white PVC coupler having an inner diameter of approximately 7 cm and being approximately 7.3 cm high, manufactured from Lasco of Brownsville, Tenn.
(§5) The non-edible foraging matrix treated with toxicant and used for the testing was a loamy, siliceous, thermic, arenic paleudults soil, which was a common sandy loam native soil from Central Florida. This native soil was initially oven dried at 150+/−2° C. for at least 24 hours, then cooled, then sifted to remove large pieces of organic debris. After treatment with a toxicant, the treated non-edible foraging matrix was formed into a disc for insertion into the monitors after termite activity occurred. The color contrast between the builder's sand, which was light honey color, and the native non-edible foraging matrix, which was a dark brown, was enough to see termites move portions of the treated soil particles from the discs into the tunnels.
In both sets of experiments, three different non-edible foraging matrix treatment applications were prepared using novel selected amounts of termite treatment chemicals. The difference between the first experiment and the second experiment was the rates used. […] The second application had the non-edible foraging matrix sample treated with 250 ppm of chlorfenapyr, a version entitled Phantom from American Cyanamid of Princeton, N.J. A third application had the non-edible foraging matrix treated with 125 ppm of fipronil, a version entitled Termidor, from Rhone-Poulenc of Research Triangle, N.C.
In both experimental set ups, controls were treated with filtered and de-ionized water. The treated non-edible foraging matrix was air dried for 7 days and stored in sealed plastic bags until ready for use. […]

[2] = system: termites (Reticulitermes flavipes (Kollar)); assay: Second experiment: test arena with treated foraging matrix disc at lower rates, termite survival in arenas; details: for Time for cessation of termite activity: second experiment, activity in the monitors not detected
Source text: as §1, §2, §3, §4, §5
The second application had the non-edible foraging matrix sample treated with 2.5 and 25.0 ppm of chlofenapyr, a version entitled Phantom from American Cyanamid of Princeton, N.J. A third application had the non-edible foraging matrix treated with 1.25 and 12.5 ppm of fipronil, a version entitled Termidor, from Rhone-Poulenc of Research Triangle, N.C. It is important to note that the rates used were approximately 10 and 100 times less than the rates use in the first experiment and are also 10 to 100 times less than the rates listed or proposed on the pesticide labels. Thus, the rates used in this experiment was not used for the intended purpose of the chemicals, which was to immediately kill the termites by creating a chemical barrier completely around the structure.
In both experimental set ups, controls were treated with filtered and de-ionized water. […]

subterranean termites [3] = details: embodiment 2
Experimental: In the first experiment for embodiment two, oven dried Alachua fine soil was treated with approximately 125.0 ppm chlorfenapyr as the non-edible foraging matrix 550. The mixture 550 was poured into the opening 542 and wet to a moisture level of 10%. The amount of mixture 550 added to opening 542 was recorded for each replicate. Circular plastic containers having a diameter of approximately 11.5 cm by approximately 10 cm thick were filled with approximately 514 g of builder's sand and wet to a moisture level of approximately 10%. Embodiment 2 was inserted into the builder's sand in the plastic cup, 500 subterranean termites were added and the termites were allowed to tunnel for 3 weeks. After 3 weeks, the plastic container setup was disassembled. The number of live termites in the experimental unit was recorded. The amount of mixture 550 displaced from embodiment 2 was measured and recorded. Data were analyzed with a comparison test, between an untreated control sample and four replications(experimental units) of chlorfenatyr(slow acting toxicant).
Alive refers to number of termites alive after three(3) weeks exposure. %Mortality refers to percentage of termites that died after three(3) weeks exposure. Soil Moved(g) refers to total amount soil removed by the termites per each replication(per experimental unit). […] An average of 99.95% of the termites in treated units died, compared with 8.8% mortality in the control unit. […] Total untreated mixture 550 moved from embodiment 2 to the surrounding area was approximately 3.93 g, compared with an average of approximately 1.49 g of mixture 550 treated with approximately 125.0 ppm chlorfenapyr.
(§6) In the second experiment, mixture 550 was tested at a concentration of approximately 12.5 ppm chlorfenapyr. Experimental procedure was identical to what is listed above.

subterranean termites [4] = details: embodiment 3
Experimental: In the first experiment for embodiment 3, oven dried Alachua fine soil was treated with approximately 125.0 ppm chlorfenapyr as the non-edible foraging matrix 550. The mixture 550 was poured into the opening 542 and wet to a moisture level of 10%. The amount of mixture 550 added to opening 542 was recorded for each replicate. Plastic containers (approximately 11.5 cm diameter, approximately 10 cm high) were filled with approximately 514 g of builder's sand and wet to a moisture level of approximately 10%. Embodiment 3 was assembled and inserted into the builder's sand in the plastic cup, 500 subterranean termites were added and the termites were allowed to tunnel for 3 weeks. After 3 weeks, the plastic container setup was disassembled. The number of live termites in the experimental unit was recorded. The amount of mixture 550 displaced from embodiment 2 was measured and recorded.
Alive refers to number of termites alive after three(3) weeks exposure. %Mortality refers to percentage of termites that died after three(3) weeks exposure. Soil Moved(g) refers to total amount soil removed by the termites per each replication(per experimental unit).
as §6

[5] = approximately 12.5 ppm chlorfenapyr
[6] = approximately 125.0 ppm chlorfenapyr

CCOCn1c(-c2ccc(Cl)cc2)c(C#N)c(Br)c1C(F)(F)F [Chlorfenapyr, chlorfenapyr]
Mean ± SE number of termites in monitors ([1]; foraging matrix 250 ppm chlorfenapyr, week 1): 100 ± 11.9 | Mean ± SE number of termites in monitors ([1]; foraging matrix 250 ppm chlorfenapyr, week 2): 60.7 ± 12.9 | Mean ± SE number of termites in monitors ([1]; foraging matrix 250 ppm chlorfenapyr, week 3): 21.3 ± 12.2 | Mean ± SE number of termites in monitors ([1]; foraging matrix 250 ppm chlorfenapyr, week 4): 10.9 ± 7.6 | Mean ± SE number of termites in monitors ([1]; foraging matrix 250 ppm chlorfenapyr, week 5): 3.5 ± 3.3 | Mean ± SE number of termites in monitors ([1]; foraging matrix 250 ppm chlorfenapyr, week 6): 0.8 ± 0.8 | Mean ± SE number of termites in monitors ([1]; foraging matrix 250 ppm chlorfenapyr, week 7): 0 ± 0 | Mean ± SE number of termites in monitors ([1]; foraging matrix 250 ppm chlorfenapyr, week 8): 0 ± 0 | Mean ± SE percent survival of termites ([2]; chlorfenapyr 2.5 ppm foraging matrix, after 8 weeks): 9.33 ± 5.05a^1% | Mean ± SE percent survival of termites ([2]; chlorfenapyr 2.5 ppm foraging matrix, after 8 weeks, listed as chlorfenapyr): 9.33% | Mean ± SE percent survival of termites ([2]; chlorfenapyr 25.0 ppm foraging matrix, after 8 weeks): 0.16 ± 0.16b % | Mean ± SE percent survival of termites ([2]; chlorfenapyr 25.0 ppm foraging matrix, after 8 weeks, listed as chlorfenapyr): 0.16% | Termite kill (in words) ([2]; chlorfenapyr at 25 ppm): killed virtually all the termites | Time for cessation of termite activity [2]: 8 weeks | Amount of mixture 550 moved, treated compared with untreated (subterranean termites [3]; [5]): no significant difference | Mortality compared with untreated replications (subterranean termites [3]; [5]): significantly higher | Average percentage of termites in treated units that died (subterranean termites [3]; approximately 12.5 ppm chlorfenapyr, approximately 13.2% in untreated control units): approximately 85.3% | Amount of mixture 550 moved, treated compared with untreated (subterranean termites [3]; [6]): significantly more of the untreated mixture 550 was moved | Mortality compared with untreated replications (subterranean termites [3]; [6]): significantly higher | Average percentage of termites in treated units that died (subterranean termites [3]; approximately 125.0 ppm chlorfenapyr, 3 weeks, 8.8% in control unit): 99.95% | % Mortality (subterranean termites [3]; approximately 125.0 ppm chlorfenapyr, after 3 weeks exposure, per replication): 100.0% and 99.8% | Amount of mixture 550 moved, 12.5 ppm compared with 125.0 ppm (subterranean termites [3]; chlorfenapyr 12.5 ppm vs 125.0 ppm): significantly more mixture 550 treated at 12.5 ppm was moved | Mortality, approximately 125 ppm compared with approximately 12.5 ppm (subterranean termites [3]; chlorfenapyr 125 ppm vs 12.5 ppm): no significant differences | Alive (number of termites alive) (subterranean termites [4]; 125.0 ppm chlorfenapyr, 500 termites, after 3 weeks exposure, per replication): 0 | % Mortality (subterranean termites [4]; 125.0 ppm chlorfenapyr, after 3 weeks exposure, per replication): 100.0% | Amount of mixture 550 moved, treated compared with untreated (subterranean termites [4]; [5]): significantly less treated mixture 550 moved | Mortality compared with untreated controls (subterranean termites [4]; [5]): no significant difference | % Mortality (subterranean termites [4]; approximately 12.5 ppm chlorfenapyr, after 3 weeks exposure, per replication): 100% | Average percentage of termites in treated units that died (subterranean termites [4]; approximately 12.5 ppm chlorfenapyr, approximately 18.5% in untreated control units): approximately 37.7% | Amount of mixture 550 moved, treated compared with untreated (subterranean termites [4]; [6]): significantly more of the untreated mixture 550 was moved | Average percentage of termites in treated units that died (subterranean termites [4]; approximately 125.0 ppm chlorfenapyr, approximately 9.6% in control unit): 100.0%

N#Cc1nn(-c2c(Cl)cc(C(F)(F)F)cc2Cl)c(N)c1[S+]([O-])C(F)(F)F (stereo not drawn) [Fipronil, fipronil]
Mean ± SE number of termites in monitors ([1]; foraging matrix 125 ppm fipronil, week 1): 73.8 ± 11.1 | Mean ± SE number of termites in monitors ([1]; foraging matrix 125 ppm fipronil, week 2): 44.3 ± 18.8 | Mean ± SE number of termites in monitors ([1]; foraging matrix 125 ppm fipronil, week 3): 14.6 ± 8.0 | Mean ± SE number of termites in monitors ([1]; foraging matrix 125 ppm fipronil, week 4): 6.4 ± 3.4 | Mean ± SE number of termites in monitors ([1]; foraging matrix 125 ppm fipronil, week 5): 2.6 ± 1.6 | Mean ± SE number of termites in monitors ([1]; foraging matrix 125 ppm fipronil, week 6): 0.3 ± 0.3 | Mean ± SE number of termites in monitors ([1]; foraging matrix 125 ppm fipronil, week 7): 0 ± 0 | Mean ± SE number of termites in monitors ([1]; foraging matrix 125 ppm fipronil, week 8): 0 ± 0 | Mean ± SE percent survival of termites ([2]; fipronil 1.25 ppm foraging matrix, after 5 weeks): 0.51 ± 0.30b % | percent survival ([2]; fipronil 12.5 and 1.25 ppm foraging matrix, 39% in untreated arenas): 0.3-0.5% | Mean ± SE percent survival of termites ([2]; fipronil 12.5 ppm foraging matrix, after 5 weeks): 0.30 ± 0.29b % | Termite kill (in words) ([2]; fipronil at 1.25 and 12.5 ppm): killed virtually all the termites | Time for cessation of termite activity [2]: 5 weeks

O=[N+]([O-])NC1=NCCN1Cc1ccc(Cl)nc1 [Imidacloprid, imidacloprid]
Termites in the monitors ([1]; 50 ppm imidacloprid, first experiment, summary of Table 1): 54 termites | Mean ± SE number of termites in monitors ([1]; foraging matrix 50 ppm imidacloprid, week 1): 82.0 ± 2.7 | Mean ± SE number of termites in monitors ([1]; foraging matrix 50 ppm imidacloprid, week 2): 67.5 ± 0.1 | Mean ± SE number of termites in monitors ([1]; foraging matrix 50 ppm imidacloprid, week 3): 45.7 ± 14.9 | Mean ± SE number of termites in monitors ([1]; foraging matrix 50 ppm imidacloprid, week 4): 13.7 ± 2.9 | Mean ± SE number of termites in monitors ([1]; foraging matrix 50 ppm imidacloprid, week 5): 8.0 ± 3.7 | Mean ± SE number of termites in monitors ([1]; foraging matrix 50 ppm imidacloprid, week 6): 3.2 ± 3.0 | Mean ± SE number of termites in monitors ([1]; foraging matrix 50 ppm imidacloprid, week 7): 1.4 ± 1.4 | Mean ± SE number of termites in monitors ([1]; foraging matrix 50 ppm imidacloprid, week 8): 1.8 ± 0.9 | percent survival ([2]; imidacloprid 0.5 and 5.0 ppm foraging matrix, 23% in untreated arenas): 17% | Mean ± SE percent survival of termites ([2]; imidacloprid 0.5 ppm foraging matrix, after 8 weeks): 17.13 ± 11.61a % | Mean ± SE percent survival of termites ([2]; imidacloprid 5.0 ppm foraging matrix, after 8 weeks): 17.57 ± 9.36a % | Time for cessation of termite activity [2]: 8 weeks
